Data reported in ChEMBL document CHEMBL1201862, “PubChem BioAssay data set” (2004).
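How tested: cells in 96-well plates exposed to compound for 48 hours at five concentrations. GI50: concentration for 50% inhibition of growth.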 Active and inactive are the calls of the source. No stated cut-off is given here; in the data, active = GI50 up to about 1.1 µM and inactive = higher.

How the values were obtained:
Test in all cases: DTP human tumour cell line panel, 48 h
A549 = test system: A549
ACHN = test system: ACHN
DU-145 = test system: DU-145
EKVX = test system: EKVX
HCC 2998 = test system: HCC 2998
HCT-116 = test system: HCT-116
HOP-62 = test system: HOP-62
Hs-578T = test system: Hs-578T
K562 = test system: K562
LOX IMVI = test system: LOX IMVI
MDA-MB-231 = test system: MDA-MB-231
Malme-3M = test system: Malme-3M
NCI-H522 = test system: NCI-H522
PC-3 = test system: PC-3
SF-268 = test system: SF-268
SK-MEL-28 = test system: SK-MEL-28
SNB-19 = test system: SNB-19
U-251 = test system: U-251
UACC-257 = test system: UACC-257
RXF 393 = test system: RXF 393

Row | SMILES | GI50 (A549) | GI50 (ACHN) | GI50 (DU-145) | GI50 (EKVX) | GI50 (HCC 2998) | GI50 (HCT-116) | GI50 (HOP-62) | GI50 (Hs-578T) | GI50 (K562) | GI50 (LOX IMVI) | GI50 (MDA-MB-231) | GI50 (Malme-3M) | GI50 (NCI-H522) | GI50 (PC-3) | GI50 (SF-268) | GI50 (SK-MEL-28) | GI50 (SNB-19) | GI50 (U-251) | GI50 (UACC-257) | GI50 (RXF 393)
1 | CC1=C(C#N)S(=O)(=O)c2c(oc(C)c2C)N1 | > 100 µM (inactive) | > 100 µM (inactive) | > 100 µM (inactive) | > 100 µM (inactive) | > 100 µM (inactive) | > 100 µM (inactive) | > 100 µM (inactive) | > 100 µM (inactive) | > 100 µM (inactive) | > 100 µM (inactive) | > 100 µM (inactive) | > 100 µM (inactive) | > 100 µM (inactive) | > 100 µM (inactive) | > 100 µM (inactive) | > 100 µM (inactive) | > 100 µM (inactive) | > 100 µM (inactive) | > 100 µM (inactive) | 
2 | CCCCOC(=O)NC(c1ccccc1)C(O)C(=O)OC1C[C@@]2(O)C(OC(=O)c3ccccc3)C3[C@](C)(C(=O)[C@H](OC(C)=O)C(=C1C)C2(C)C)[C@@H](O)C[C@H]1OC[C@@]31OC(C)=O (stereo not given in full) | 0.00873 µM (active) | 0.0678 µM (active) | 0.0125 µM (active) | 0.0741 µM (active) | 0.011 µM (active) | 0.00216 µM (active) | 0.0239 µM (active) | 0.00191 µM (active) | 0.00447 µM (active) | 0.00427 µM (active) | 0.034 µM (active) |  | 0.00234 µM (active) | 0.0171 µM (active) | 0.0113 µM (active) |  | 0.0361 µM (active) | 0.00807 µM (active) |  | 0.0156 µM (active)
3 | O=C(NO)c1ccc(OCc2cccc(Cl)c2)cc1 | 8.18 µM (inactive) | 4.57 µM (inactive) | 7.59 µM (inactive) | 10.8 µM (inactive) | 5.87 µM (inactive) | 2.22 µM (inactive) | 9.1 µM (inactive) | 16.2 µM (inactive) | 7.96 µM (inactive) | 5.07 µM (inactive) | 12.1 µM (inactive) |  | 3.27 µM (inactive) | 6.64 µM (inactive) | 10.7 µM (inactive) | 12.3 µM (inactive) | 24.5 µM (inactive) | 11.6 µM (inactive) | 13.6 µM (inactive) | 10.2 µM (inactive)
4 | Nc1nc(Cl)c2ncn(Cc3ccccc3CCl)c2n1 | 22 µM (inactive) | 5.69 µM (inactive) | 14.7 µM (inactive) | 15.9 µM (inactive) | 2.99 µM (inactive) | 3.95 µM (inactive) | 21.6 µM (inactive) | 7.76 µM (inactive) | 4.43 µM (inactive) | 3.92 µM (inactive) | 2.96 µM (inactive) | 3.36 µM (inactive) | 2.98 µM (inactive) | 15 µM (inactive) | 4.71 µM (inactive) | 4.81 µM (inactive) | 6.05 µM (inactive) | 3.46 µM (inactive) | 13.1 µM (inactive) | 
5 | COc1ccc2c(c1OC)C(=O)O[C@@H]2[C@H]1c2cc3c(cc2CCN1C)OCO3 | > 100 µM (inactive) | > 100 µM (inactive) | > 100 µM (inactive) | > 100 µM (inactive) | > 100 µM (inactive) | > 100 µM (inactive) | > 100 µM (inactive) | > 100 µM (inactive) | > 100 µM (inactive) | > 100 µM (inactive) | > 100 µM (inactive) |  | > 100 µM (inactive) | > 100 µM (inactive) | > 100 µM (inactive) |  | > 100 µM (inactive) | > 100 µM (inactive) | > 100 µM (inactive) | 
6 | c1cncc(C(Nc2cccc3cccnc23)Nc2cccc3cccnc23)c1 | > 100 µM (inactive) | > 100 µM (inactive) | > 100 µM (inactive) | 69.7 µM (inactive) | > 100 µM (inactive) | > 100 µM (inactive) | > 100 µM (inactive) | > 100 µM (inactive) | > 100 µM (inactive) | > 100 µM (inactive) | > 100 µM (inactive) |  | 28.8 µM (inactive) | > 100 µM (inactive) | 50.5 µM (inactive) |  | > 100 µM (inactive) | > 100 µM (inactive) | > 100 µM (inactive) | 77.3 µM (inactive)
7 | CCC(O)(Cc1ccc(OC)cc1)c1ccc(OC)cc1 (stereo not given) | > 100 µM (inactive) | > 100 µM (inactive) | > 100 µM (inactive) | > 100 µM (inactive) | > 100 µM (inactive) | > 100 µM (inactive) | > 100 µM (inactive) | > 100 µM (inactive) | > 100 µM (inactive) | > 100 µM (inactive) | > 100 µM (inactive) | > 100 µM (inactive) | > 100 µM (inactive) | > 100 µM (inactive) | > 100 µM (inactive) |  | > 100 µM (inactive) | > 100 µM (inactive) | > 100 µM (inactive) | > 100 µM (inactive)
8 | COc1ccc2c(C=O)c3n(c(=O)c2c1OC)CCc1cc2c(cc1-3)OCO2 | 22.3 µM (inactive) | 69.2 µM (inactive) | 78.3 µM (inactive) | 35.6 µM (inactive) | 14.2 µM (inactive) | 26.3 µM (inactive) | > 100 µM (inactive) | > 100 µM (inactive) |  |  | > 100 µM (inactive) | 80 µM (inactive) | 30.4 µM (inactive) | 15.1 µM (inactive) | > 100 µM (inactive) | > 100 µM (inactive) | 76.4 µM (inactive) | 40.6 µM (inactive) | 32.2 µM (inactive) | 2.91 µM (inactive)
9 | CC(=O)Oc1c(C)cc2c(c1C)C(C)CN2C(C)=O (stereo not given) | > 100 µM (inactive) | > 100 µM (inactive) | > 100 µM (inactive) | > 100 µM (inactive) | > 100 µM (inactive) | > 100 µM (inactive) | > 100 µM (inactive) | > 100 µM (inactive) | > 100 µM (inactive) | > 100 µM (inactive) | > 100 µM (inactive) |  | > 100 µM (inactive) | > 100 µM (inactive) | > 100 µM (inactive) | > 100 µM (inactive) | > 100 µM (inactive) | > 100 µM (inactive) | > 100 µM (inactive) | > 100 µM (inactive)
10 | CC(=O)O[C@H]1C(=O)[C@@]2(C)[C@H]([C@H](OC(=O)c3ccc([N+](=O)[O-])cc3)[C@]3(O)C[C@H](OC(=O)[C@H](O)[C@@H](NC(=O)c4ccccc4)c4ccccc4)C(C)=C1C3(C)C)[C@]1(OC(C)=O)CO[C@@H]1C[C@@H]2O | > 25 µM (inactive) | > 25 µM (inactive) | > 25 µM (inactive) | > 25 µM (inactive) | > 25 µM (inactive) | > 25 µM (inactive) | > 25 µM (inactive) | > 25 µM (inactive) | > 25 µM (inactive) |  | > 25 µM (inactive) | > 25 µM (inactive) | > 25 µM (inactive) | > 25 µM (inactive) | > 25 µM (inactive) | > 25 µM (inactive) | > 25 µM (inactive) | > 25 µM (inactive) | > 25 µM (inactive) | > 25 µM (inactive)
11 | O=C(C=P(c1ccccc1)(c1ccccc1)c1ccccc1)c1ccc(-c2cccc([N+](=O)[O-])c2)cc1 | 3.64 µM (inactive) | 2.82 µM (inactive) | 6.07 µM (inactive) | 2.69 µM (inactive) | 1.66 µM (inactive) | 2.21 µM (inactive) | 5.86 µM (inactive) | 4.9 µM (inactive) | 3.35 µM (inactive) | 2.11 µM (inactive) | 2.65 µM (inactive) | 3.48 µM (inactive) |  | 3.57 µM (inactive) | 4.65 µM (inactive) | 4.98 µM (inactive) | 5.07 µM (inactive) | 3.84 µM (inactive) | 3.27 µM (inactive) | 3.06 µM (inactive)
12 | COP(C)(=O)C(Cc1c[nH]c2ccccc12)NC(=O)OCc1ccccc1 (stereo not given) | > 100 µM (inactive) | > 100 µM (inactive) | > 100 µM (inactive) | > 100 µM (inactive) | > 100 µM (inactive) | > 100 µM (inactive) | > 100 µM (inactive) | > 100 µM (inactive) | > 100 µM (inactive) | > 100 µM (inactive) | > 100 µM (inactive) | > 100 µM (inactive) |  | > 100 µM (inactive) | > 100 µM (inactive) | > 100 µM (inactive) | > 100 µM (inactive) | > 100 µM (inactive) | > 100 µM (inactive) | > 100 µM (inactive)
13 | CCN(CC)C(=O)COc1cc2c(O)c3c(O)c(C)c4c(c13)C(=O)C(C)(OC=CC(OC)C(C)C(OC(C)=O)C(C)C(O)C(C)C(O)C(C)C=CC=C(C)C(=O)N2)O4 (stereo not given) | > 100 µM (inactive) | > 100 µM (inactive) | > 100 µM (inactive) | > 100 µM (inactive) | > 100 µM (inactive) | > 100 µM (inactive) | > 100 µM (inactive) | > 100 µM (inactive) | > 100 µM (inactive) | > 100 µM (inactive) | > 100 µM (inactive) | > 100 µM (inactive) |  | > 100 µM (inactive) | > 100 µM (inactive) | > 100 µM (inactive) | > 100 µM (inactive) | > 100 µM (inactive) | > 100 µM (inactive) | > 100 µM (inactive)
14 | CCN1C[C@]2(C)CC[C@H](OCc3ccccc3)C34C5C[C@@H]6CC[C@](O)(C(C[C@@H]32)C14)C5[C@H]6OCc1ccccc1 (stereo not given in full) | > 100 µM (inactive) | 32.4 µM (inactive) | > 100 µM (inactive) | 44.7 µM (inactive) | 20 µM (inactive) | 42.7 µM (inactive) | > 100 µM (inactive) | > 100 µM (inactive) | 55.6 µM (inactive) | > 100 µM (inactive) | 52.1 µM (inactive) | > 100 µM (inactive) |  | 21.7 µM (inactive) | > 100 µM (inactive) | > 100 µM (inactive) | > 100 µM (inactive) | 64.9 µM (inactive) | 29.9 µM (inactive) | 53.1 µM (inactive)
